For 25 compounds, ED50 and IC50 results are on record in patent US4525360A, “Anti-psychotic phenylindene derivatives and acid addition salts thereof” (Kefalas A/S, priority 1982, dated 1985).

In one experiment the test system is methylphenidate. The experiment can be described thus: Methylphenidate antagonism, mice i.p. In kind it is in vivo. To be noted: Mus musculus, ip. As to the method: Methylphenidate antagonism (ED50 μmol/kg i.p.)
Perspex observation cages without bottom and lid, consisting of 5 sections each measuring 12×25×30 cm.
Two hours after injection of test substance, methylphenidate, 60 mg/kg, is injected s.c. After administration of methylphenidate the mice are placed in the observation cages, 2 in each cage, where they remain for exactly 1 hour. The cages are placed on corrugated paper, the corrugations facing upwards. It is examined whether the mice have been biting the corrugated paper or not.
The result is stated in fractions: 0/3, 1/3, 2/3 and 3/3 where 0, 1, 2 and 3 are the number of pairs which have not been biting on receipt of the dose in question.

A short description of experiment [1]: Catalepsy wire mesh, rat, max. The experiment is classed as in vivo, rats. As to conditions: po, read-out: Catalep. ED50 (po). As to the method: Catalepsy wire mesh, rat, max. (ED50 μmol/kg p.o.)
A vertical wire netting (50 cm×49 cm). The meshes (openings) of the netting are square (1 cm×1 cm). The wire diameter is 2 mm.
The animals are labeled and used in groups of five. The test substance is administered orally (p.o.) at 4 dose levels selected from a fixed dose scale.
The animals are placed in the middle of the vertical wire netting 60, 120, 180, 240, 300 and 360 minutes after administration of the test compound. The animals are considered cataleptic when they remain immobile during a period of 15 seconds. This cataleptic reaction is designated +.
If the rats are "atonic" and passively slide down the wire mesh they are considered not cataleptic. If the animals climb up and down the wire mesh they are nor cataleptic. In both situations the designation - is used.

In another experiment the test system is 5-HT, rat fundus strip. The experiment in a line: 5-HT antagonism, rat fundus strip. To be noted: read-out: 5HT rat-fundus-strip IC50. As to the method:
5-HT antagonism, rat fundus strip
5-hydroxytryptamine (5-HT).
Rats are killed by a blow on the head and exsanguinated. The stomach fundus is removed and carefully cleaned with Krebs solution at 30° C. The fundus is then stretched over a rounded end of a plastic rod about the thickness of a pencil, whereby the longitudinal direction of the muscle fibers is visible. The fundus is halved by carefully cutting in the central line and in the direction of these fibres. Along this incision two strips with a length of 15-25 mm and with width 1.5-2.5 mm are cut, one from each half of the fundus. The mucosa is then carefully removed. A thread is attached to each end of a strip. One thread is fixed to a pin in the bottom of the organ bath and the other thread is fixed to an isotonic transducer. The strip is kept under a tone of 1.5 to 2.0 g. […] Concentration response curves to 5-HT are obtained by adding 5-HT to the bath in increasing concentrations (0.1 ml of 10^-9 M resulting in 1.0×10^-11 M in the bath, 0.2 ml of 10^-9 M resulting in 3.0×10^-11 M, 0.1 ml of 10^-8 M resulting in about 1×10^-10 M, 0.2 ml of 10^-8 M resulting in about 3×10^-10 M--0.2 ml of 10^-4 resulting in about 3×10^-6 M in the bath). Each concentration of 5-HT is allowed to exert its maximal effect (1-10 min) before the next is added. When the maximal response is reached the tissue is carefully washed. The test substance is added to the bath for 10 min. before examining its effect on a new cumulative 5-HT concentration response curve. From the control concentration effect curve the Km for 5-HT is calculated.
The results are recorded as mean percentage inhibition.
Substrate concentration for 5-HT: 1.0×10^-9 M to 1.0×10^-8 M.
Michaelis-Menten constant for 5-HT is estimated each time.

Where [2] appears, read: Table 1, mice, i.p., 2 h before methylphenidate 60 mg/kg s.c., read-out: MePh Antag. ED50 (ip).
Where [3] appears, read: Table 1, rat, p.o., max. effect within 6 h.
Setting [4] is: 10 min, Table 1, rat fundus strip in vitro, 10 min pre-exposure.
Where [5] appears, read: read-out: MePh Antag. ED50 (ip).
[6] abbreviates: Table 2, hydroxyindane intermediates, mice, i.p., read-out: MePh Antag. ED50.

Where a name gives a salt, the structure may show the parent alone. Read-outs that look alike come from different tables or passages of the source. Bounds are passed on as bounds.

On to `OCCN1CC=C(C2=CC(c3ccc(F)cc3)c3ccc(F)cc32)CC1` (stereo not drawn) [Lu 19-157, 6-Fluoro-3-(4'-fluorophenyl)-1-(1-hydroxyethyl-1,2,3,6-tetrahydropyrid-4-yl)-1-indene, hydrobromide], for which the median effective dose (ED50) with methylphenidate (setting [2]) was 15.8 µmol/kg; in experiment [1] (setting [3]), 55.3 µmol/kg. The IC50 with 5-HT, rat fundus strip (setting [4]) amounted to 330 nM.

For the compound `OCCN1CCN(CCCN2c3ccccc3Sc3ccc(C(F)(F)F)cc32)CC1` [Fluphenazine, reference compound], the ED50 with methylphenidate (setting [5]) turned out to be 0.07 µmol/kg; in experiment [1] (Rattus norvegicus, 6 h), 0.55 µmol/kg.

Regarding `Cc1ccc2c(c1)C(C1CCN(CCO)CC1)C=C2c1ccc(F)cc1` (stereo not drawn) [Lu 20-039, 3-(4'-Fluorophenyl)-1-(1-hydroxyethyl-4-piperidyl)-6-methyl-2-indene, hydrobromide], the ED50 in the experiment with methylphenidate (setting [2]) was 93 µmol/kg; in experiment [1] (setting [3]), more than 93 µmol/kg. Besides, in the experiment with 5-HT, rat fundus strip (setting [4]), the IC50 worked out at 1900 nM.

As for `Cc1ccc2c(c1)C(C1=CCN(CCO)CC1)C=C2c1ccc(F)cc1` (stereo not drawn) [Lu 20-038, 3-(4'-Fluorophenyl)-1-(1-hydroxyethyl-1,2,3,6-tetrahydropyrid-4-yl)-6-methyl-2-indene, hydrobromide], the ED50 in the experiment with methylphenidate (setting [2]) is 0.89 µmol/kg; in experiment [1] (setting [3]), 3.8 µmol/kg. Further, the half-inhibitory concentration (IC50) in the experiment on 5-HT, rat fundus strip (setting [4]) turned out to be 28 nM.

For the compound `CN1CCC(C2=CC(c3ccc(F)cc3)c3ccc(F)cc32)CC1` (stereo not drawn) [Lu 20-028, 6-Fluoro-3-(4'-fluorophenyl)-1-(1-methyl-4-piperidyl)-1-indene, hydrobromide], the ED50 in the experiment with methylphenidate (setting [2]) was 0.78 µmol/kg; in experiment [1] (setting [3]), 6.2 µmol/kg. In addition, the half-maximal inhibitory concentration (IC50) with 5-HT, rat fundus strip (setting [4]) was 200 nM.

As to `COc1ccc2c(c1)C(C1CCN(CCO)CC1)=CC2c1ccc(F)cc1` (stereo not drawn) [Lu 20-033, 3-(4'-Fluorophenyl)-1-(1-hydroxyethyl-4-piperidyl)-6-methoxy-1-indene, hydrobromide], the median effective dose (ED50) in the experiment with methylphenidate (setting [2]) stood at 18.3 µmol/kg; in experiment [1] (setting [3]) it was 6.2 µmol/kg. In addition, the IC50 in the experiment with 5-HT, rat fundus strip (setting [4]) amounted to 160 nM.

As to `CC(C)c1ccc2c(c1)C(C1CCN(CCO)CC1)=CC2c1ccc(F)cc1` (stereo not drawn) [Lu 20-109, 3-(4'-Fluorophenyl)-1-(1-hydroxyethyl-4-piperidyl)-6-(2-propyl)-1-indene, hydrochloride], in the experiment with methylphenidate (setting [2]), the ED50 was found to be 1.1 µmol/kg.

Regarding `CN1CC=C(C2=CC(c3ccc(F)cc3)c3ccc(Cl)cc32)CC1` (stereo not drawn) [Lu 20-079, 6-Chloro-3-(4'-fluorophenyl)-1-(1-methyl-1,2,3,6-tetrahydropyrid-4-yl)-1-indene, hydrobromide], in the experiment on methylphenidate (setting [2]), the ED50 was 3 µmol/kg.

As for `Cc1ccc2c(c1)C(C1CCN(CCN3CCNC3=O)CC1)=CC2c1ccc(F)cc1` (stereo not drawn) [Lu 20-064, 3-(4'-Fluorophenyl)-1-(1-(2-imidazolidinon-1-ylethyl)-4-piperidyl)-6-methyl-1-indene, oxalate], the ED50 in the experiment on methylphenidate (setting [2]) was 0.86 µmol/kg; in experiment [1] (setting [3]), 6.7 µmol/kg. Moreover, the 50% inhibitory concentration (IC50) with 5-HT, rat fundus strip (setting [4]) worked out at 22 nM.

As for `O=C(CCCN1CCC(O)(c2ccc(Cl)cc2)CC1)c1ccc(F)cc1` [Haloperidol, reference compound], the ED50 in the experiment with methylphenidate (setting [5]) was found to be 0.11 µmol/kg; in experiment [1] (Rattus norvegicus, 6 h), 1 µmol/kg.

As for `CN1CCC(C2C=C(c3ccc(F)cc3)c3ccc(F)cc32)CC1` (stereo not drawn) [Lu 19-004, 6-Fluoro-3-(4'-fluorophenyl)-1-(1-methyl-4-piperidyl)-2-indene], the median effective dose (ED50) in the experiment with methylphenidate (setting [2]) was 12.2 µmol/kg; in experiment [1] (setting [3]), 64.2 µmol/kg. Further, the IC50 in the experiment on 5-HT, rat fundus strip (setting [4]) was determined as 1100 nM.

As to `CN1CC=C(C2=CC(c3ccc(F)cc3)c3ccc(F)cc32)CC1` (stereo not drawn) [Lu 20-025, 6-Fluoro-3-(4'-fluorophenyl)-1-(1-methyl-1,2,3,6-tetrahydropyrid-4-yl)-1-indene, hydrobromide], the 50% effective dose (ED50) with methylphenidate (setting [2]) came to 7.6 µmol/kg; in experiment [1] (setting [3]), 5.3 µmol/kg. Besides, the IC50 in the experiment with 5-HT, rat fundus strip (setting [4]) stood at 240 nM.

As to `Cc1ccc2c(c1)C(O)(C1=CCN(CCO)CC1)CC2c1ccc(F)cc1` (stereo not drawn) [Lu 19-154, 3-(4'-Fluorophenyl)-1-hydroxy-1-(1-hydroxyethyl-1,2,3,6-tetrahydropyrid-4-yl)-6-methylindane], the ED50 in the experiment with methylphenidate (setting [6]) was determined as 6.2 µmol/kg. In addition, in the experiment on 5-HT, rat fundus strip (Table 2, hydroxyindane intermediates, rat fundus strip in vitro), the IC50 came out at 5.4 nM.

As to `Cc1ccc2c(c1)C(=C1CCN(CCO)CC1)C=C2c1ccc(F)cc1` [Lu 20-044, 3-(4'-Fluorophenyl)-1-(1-hydroxyethyl-4-piperidylidenyl)-6-methyl-2-indene,hydrobromide], the ED50 in the experiment with methylphenidate (setting [2]) was determined as 5.1 µmol/kg. Besides, the IC50 in the experiment with 5-HT, rat fundus strip (setting [4]) stood at 280 nM.

For `OC1(C2CCNCC2)CC(c2ccc(F)cc2)c2ccc(F)cc21` (stereo not drawn) [Lu 19-139, 6-Fluoro-3-(4'-fluorophenyl)-1-hydroxy-1-(4-piperidyl)indane], the 50% effective dose (ED50) in the experiment on methylphenidate (setting [6]) was 15.6 µmol/kg.

For the compound `Cc1ccc2c(c1)C(C1CCN(CCN3CCOC3=O)CC1)=CC2c1ccc(F)cc1` (stereo not drawn) [Lu 21-002, 3-(4'-Fluorophenyl)-6-methyl-1-(1-(2-oxazolidinon-3-ylethyl)-4-piperidyl)-1-indene, trifluoroacetate], the 50% effective dose (ED50) in the experiment with methylphenidate (setting [2]) was 1.7 µmol/kg.

With `Cc1ccc2c(c1)C(C1=CCN(C)CC1)C=C2c1ccc(F)cc1` (stereo not drawn) [Lu 20-040, 3-(4'-Fluorophenyl)-6-methyl-1-(1-methyl-1,2,3,6-tetrahydropyrid-4-yl)-2-indene, hydrobromide], the 50% effective dose (ED50) worked out at 0.7 µmol/kg with methylphenidate (setting [2]) and 5.5 µmol/kg in experiment [1] (setting [3]). For the same compound, in the experiment with 5-HT, rat fundus strip (setting [4]), the IC50 came to 62 nM.

On to `COc1ccc2c(c1)C(C1=CCN(CCO)CC1)=CC2c1ccc(F)cc1` (stereo not drawn) [Lu 20-021, 3-(4'-Fluorophenyl)-1-(1-hydroxyethyl-1,2,3,6-tetrahydropyrid-4-yl)-6-methoxy-1-indene, hydrobromide], for which, in the experiment on methylphenidate (setting [2]), the ED50 turned out to be 11.6 µmol/kg. Also, the IC50 in the experiment with 5-HT, rat fundus strip (setting [4]) was 500 nM.

For the compound `O=C1NCCN1CCN1CCC(C2C=C(c3ccc(F)cc3)c3ccccc32)CC1` (stereo not drawn) [Lu 20-082, 3-(4'-Fluorophenyl)-1-(1-(2-imidazolidinon-1-ylethyl)-4-piperidyl)-2-indene], the ED50 in the experiment on methylphenidate (setting [2]) came to 70.9 µmol/kg. In addition, the half-inhibitory concentration (IC50) in the experiment on 5-HT, rat fundus strip (setting [4]) came to 1500 nM.

In the case of `CN(C)CCCN1c2ccccc2Sc2ccc(Cl)cc21` [Chlorpromazine, reference compound], the ED50 in experiment [1] (Rattus norvegicus, 6 h) was 70 µmol/kg. Further, in the experiment on 5-HT, rat fundus strip (Rattus norvegicus, 10 min), the concentration for half-maximal inhibition (IC50) is more than 5000 nM.

With `Cc1ccc2c(c1)C(O)(C1=CCN(C)CC1)CC2c1ccc(F)cc1` (stereo not drawn) [Lu 19-131, 3-(4'-Fluorophenyl)-1-hydroxy-6-methyl-1-(1-methyl-1,2,3,6-tetrahydropyrid-4-yl)indane], in the experiment with methylphenidate (setting [6]), the 50% effective dose (ED50) turned out to be 14.8 µmol/kg.

Consider `Cc1ccc2c(c1)C(C1CCN(C)CC1)=CC2c1ccc(F)cc1` (stereo not drawn) [Lu 20-048, 3-(4'-Fluorophenyl)-6-methyl-1-(1-methyl-4-piperidyl)-1-indene, hydrobromide], for which the ED50 with methylphenidate (setting [2]) was determined as 0.53 µmol/kg; in experiment [1] (setting [3]), 3.4 µmol/kg. Besides, the 50% inhibitory concentration (IC50) in the experiment with 5-HT, rat fundus strip (setting [4]) came out at 42 nM.

Take `O=C1NCCN1CCN1CCC(C2=CC(c3ccc(F)cc3)c3ccccc32)CC1` (stereo not drawn) [Lu 20-078, 3-(4'-Fluorophenyl)-1-(1-(2-imidazolidinon-1-ylethyl)-4-piperidyl)-1-indene, oxalate]: the ED50 in the experiment with methylphenidate (setting [2]) was 16.5 µmol/kg. In the experiment with 5-HT, rat fundus strip (setting [4]), the concentration for half-maximal inhibition (IC50) was 120 nM.

Turning to `CC(C)c1ccc2c(c1)C(C1=CCN(C)CC1)=CC2c1ccc(F)cc1` (stereo not drawn) [Lu 20-099, 3-(4'-Fluorophenyl)-1-(1-methyl-1,2,3,6-tetrahydropyrid-4-yl)-6-(2-propyl)-1-indene, hydrobromide], in the experiment with methylphenidate (setting [2]), the median effective dose (ED50) amounted to 5.6 µmol/kg. The IC50 with 5-HT, rat fundus strip (setting [4]) was 5000 nM.

For `O=C1NCCN1CCN1CCC(C2=CC(c3ccc(F)cc3)c3ccc(F)cc32)CC1` (stereo not drawn) [Lu 20-087, 6-Fluoro-3-(4'-fluorophenyl)-1-(1-(2-imidazolidinon-1-ylethyl)-4-piperidyl)-1-indene, oxalate], the ED50 in the experiment on methylphenidate (setting [2]) turned out to be 10.8 µmol/kg.

A word on the ED50: it is the midpoint of the dose-response relation. Broadly, the IC50 is the concentration that gives 50% inhibition.
